Measured values from patent US9884063B2, “Amido-substituted azole compounds” (Bayer Pharma Aktiengesellschaft, priority 2014, dated 2018).

Experiments:
[1] = system: HEK293 FOP control reporter cell line; assay: HEK293 FOP Assay (FOP control vector luciferase reporter); type: cell-based; conditions: Homo sapiens
Outline: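 Compound series 50 μM to 15 nM, 3.16-fold steps, were diluted in CAFTY buffer (pH 7.4, 2 mM Ca2+, 0.01% BSA) and tested alongside the TOP reporter line. Human Wnt-3a was added at 2500–5 ng/ml in two-fold steps. The control HEK293 line stably holds an FOP vector whose TCF elements are randomized and non-functional.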

[2] = system: wildtype Wnt signaling cascade; assay: HEK293 TOP Assay (Super TopFlash luciferase reporter, Wnt-3a stimulated); type: cell-based; conditions: Homo sapiens, HEK293, 16 h
Outline: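 Compounds (50 μM down to 15 nM, 3.16-fold steps, in CAFTY buffer pH 7.4, 2 mM Ca2+, 0.01% BSA) tested in parallel on TOP and FOP HEK293 reporter lines to define selective wildtype Wnt inhibition. Pathway driven by recombinant human Wnt-3a applied at 2500–5 ng/ml in two-fold dilutions.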

TNKS2 = target: T1, TNKS2 (Homo sapiens, UniProt Q9H2K2); assay: Modified TNKS2 Assay 2 (auto-parsylation, [3H]-NAD+ SPA); type: biochemical; conditions: 6 nM TNKS2, 96 well
T1 sequence (Q9H2K2 1-1166): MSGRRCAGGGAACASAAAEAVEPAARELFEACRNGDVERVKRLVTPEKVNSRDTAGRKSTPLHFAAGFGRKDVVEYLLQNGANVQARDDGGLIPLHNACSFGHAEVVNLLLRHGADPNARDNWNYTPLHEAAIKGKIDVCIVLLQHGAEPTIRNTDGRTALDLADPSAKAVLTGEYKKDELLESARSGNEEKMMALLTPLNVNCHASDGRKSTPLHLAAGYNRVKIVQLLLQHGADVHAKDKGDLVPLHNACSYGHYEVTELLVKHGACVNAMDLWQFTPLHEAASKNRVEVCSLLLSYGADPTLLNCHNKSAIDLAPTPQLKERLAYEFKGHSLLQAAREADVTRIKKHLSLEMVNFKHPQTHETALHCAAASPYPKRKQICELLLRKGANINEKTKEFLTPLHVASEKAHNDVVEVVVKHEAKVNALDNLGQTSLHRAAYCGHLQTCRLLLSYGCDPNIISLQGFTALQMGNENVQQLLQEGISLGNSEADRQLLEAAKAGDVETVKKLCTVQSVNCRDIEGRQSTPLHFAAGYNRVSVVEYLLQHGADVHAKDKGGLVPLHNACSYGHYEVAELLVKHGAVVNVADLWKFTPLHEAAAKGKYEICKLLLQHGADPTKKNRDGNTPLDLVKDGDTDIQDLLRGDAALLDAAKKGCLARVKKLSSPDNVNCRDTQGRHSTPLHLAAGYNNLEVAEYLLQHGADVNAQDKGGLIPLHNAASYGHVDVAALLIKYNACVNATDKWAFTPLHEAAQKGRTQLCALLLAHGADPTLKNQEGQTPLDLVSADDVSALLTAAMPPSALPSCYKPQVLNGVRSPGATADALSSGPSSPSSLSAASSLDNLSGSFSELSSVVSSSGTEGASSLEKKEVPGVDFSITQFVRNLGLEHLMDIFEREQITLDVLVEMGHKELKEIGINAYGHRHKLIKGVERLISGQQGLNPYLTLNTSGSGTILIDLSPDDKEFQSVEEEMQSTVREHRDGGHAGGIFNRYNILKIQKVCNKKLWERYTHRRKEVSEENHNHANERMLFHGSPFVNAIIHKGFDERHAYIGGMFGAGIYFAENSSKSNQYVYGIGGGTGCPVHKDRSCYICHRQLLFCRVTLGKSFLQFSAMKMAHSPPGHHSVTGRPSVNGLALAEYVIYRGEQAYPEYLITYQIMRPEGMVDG
Procedure: The potency of selected compounds according to the invention was assessed applying an modified in vitro inhibition assay. Here, the TNKS2 catalyzed NAD^+-dependent ribosylation of the enzyme itself (auto-parsylation) was detected using [^3H]-NAD^+ as substrate and applying the scintillation proximity assay (SPA) method to detect tritium-labeled, parsylated TNKS2. The intensity of the readout signal is proportional to the incorporated [^3H]-NAD^+. Inhibition of TNKS2 leads to a decreased incorporation of [^3H]-NAD^+ and consequently to a lower readout signal intensity. The concentration of a test compound which inhibits the enzyme activity by 50% (corresponds to half of the normed readout signal intensity) is reported as IC50.
The assay was conducted in a 96 well MTP format with the identical TNKS2 enzyme sample and NAD^+ sample as in the histone ribosylation assay with the following modifications: TNKS2 enzyme sample was diluted with a modified assay buffer (50 mM MES pH 7.0, 1 mM DTT, 0.01% Triton X-100) to a final concentration of 6 nM TNKS2 and 10×NAD^+ solution was diluted with the modified assay buffer (s. above) to a final 0.445×NAD^+ solution doped with 100 Bq/ul [^3H]-NAD^+ [Catalog #NET443H050UC, Perkin Elmer, Waltham, Mass., USA]. Substrate solution (10 ul) was incubated with different test compound concentrations (2.5 ul in 10% DMSO in modified assay buffer) or control (2.5 ul 10% DMSO in modified assay buffer only) and enzyme (10 ul) over night at room temperature. Incorporated tritium was measured after addition of 50 ul SPA beads (1 mg/ml) [Catalog #RPNQ0095 20 mg/ml, Perkin Elmer, Waltham, Mass., USA; diluted 1:10 with Dulbecco's phosphate buffered saline, PBS Catalog #D8537, Sigma-Aldrich, Steinheim, Germany] and detection of the photon emission with a beta count plate reader [Wallac MicroBeta®, Perkin Elmer, Waltham, Mass., USA].

[3] = HEK293 FOP control reporter cells, 16 hours, luciferase, dilution series from 50 μM
[4] = HEK293 TOP reporter cell line, Wnt-3a at EC50, 16 hours incubation, compound dilution series 50 μM to 15 nM
[5] = HEK293 TOP reporter cells, Wnt3a at EC50, 16 hours, luciferase
[6] = HEK293 FOP control reporter cell line, 16 hours incubation, compound dilution series 50 μM to 15 nM

SMILES	IC50 [2, 4]	IC50 [2, 5]	IC50 (TNKS2)	IC50 [1, 3]	IC50 [1, 6]
CCC(C)NC(=O)c1ncoc1C(=O)Nc1ccc(NC(=O)c2ccc(F)cc2Cl)cc1 (stereo not drawn) [Example 7, N^4-sec-butyl-N^5-{4-[(2-chloro-4-fluorobenzoyl)amino]phenyl}-1,3-oxazole-4,5-dicarboxamide]	5650 nM	5650 nM	–	45000 nM	45000 nM
CC(C)NC(=O)c1ncoc1C(=O)Nc1ccc(NC(=O)c2ccc(F)cc2Cl)cc1 [Example 15, N^5-{4-[(2-chloro-4-fluorobenzoyl)amino]phenyl}-N^4-isopropyl-1,3-oxazole-4,5-dicarboxamide]	1250 nM	1250 nM	–	≥ 50000 nM	–
CNC(=O)c1nc[nH]c1C(=O)Nc1ccc(NC(=O)c2c(C)cc(F)cc2C)cc1 [Example 23, N^5-{4-[(4-fluoro-2,6-dimethylbenzoyl)amino]phenyl}-N^4-methyl-1H-imidazole-4,5-dicarboxamide]	660 nM	660 nM	–	≥ 50000 nM	–
CNC(=O)c1nc[nH]c1C(=O)Nc1ccc(NC(=O)c2c(F)cc(F)cc2Cl)cc1 [Example 118, N^5-{4-[(2-chloro-4,6-difluorobenzoyl)amino]phenyl}-N^4-methyl-1H-imidazole-4,5-dicarboxamide]	620 nM	–	140 nM	–	–
NC(=O)c1nc[nH]c1C(=O)Nc1ccc(NC(=O)c2ccc(F)cc2Cl)cc1 [Example 121]	270 nM	–	70 nM	–	–
O=C(Nc1ccc(NC(=O)c2nc[nH]c2C(=O)NC(CO)CO)cc1)c1ccccc1Cl [Example 157, N^4-{4-[(2-chlorobenzoyl)amino]phenyl}-N^5-(1,3-dihydroxypropan-2-yl)-1H-imidazole-4,5-dicarboxamide]	8400 nM	–	1400 nM	–	–
CN1CCN(CCNC(=O)c2[nH]cnc2C(=O)Nc2ccc(NC(=O)c3ccccc3Cl)cc2)CC1 [Example 160, N^4-{4-[(2-chlorobenzoyl)amino]phenyl}-N^5-[2-(4-methylpiperazin-1-yl)ethyl]-1H-imidazole-4,5-dicarboxamide]	580 nM	–	110 nM	–	–
CNC(=O)c1[nH]cnc1C(=O)Nc1ccc(NC(=O)c2cc(Cl)sc2Cl)cc1 [Example 213, N^4-(4-{[(2,5-dichloro-3-thienyl)carbonyl]amino}phenyl)-N^5-methyl-1H-imidazole-4,5-dicarboxamide]	460 nM	–	–	–	8400 nM

The remaining compounds from weak to strong by IC50 [2, 4], led by results:

IC50 [2, 4]	IC50 [2, 5]	IC50 (TNKS2)	SMILES	IC50 [1, 3]	IC50 [1, 6]
50000 nM	–	> 10000 nM	CNC(=O)c1nc[nH]c1C(=O)Nc1ccc(NC(=O)c2cc(OCCN3CCN(C)CC3)ccc2Cl)cc1 [Example 124, N^5-[4-({2-chloro-5-[2-(4-methylpiperazin-1-yl)ethoxy]benzoyl}amino)phenyl]-N^4-methyl-1H-imidazole-4,5-dicarboxamide]	–	–
9700 nM	9700 nM	–	CNC(=O)c1nc[nH]c1C(=O)Nc1ccc(NC(=O)c2ccc(N3CCCC3)cc2F)cc1 [Example 3, N^5-(4-{[2-fluoro-4-(pyrrolidin-1-yl)benzoyl]amino}phenyl)-N^4-methyl-1H-imidazole-4,5-dicarboxamide]	≥ 50000 nM	–
9350 nM	11500 nM	–	COC(=O)c1ncoc1C(=O)Nc1ccc(NC(=O)c2ccc(F)cc2Cl)cc1 [Example 14, Methyl 5-({4-[(2-chloro-4-fluorobenzoyl)amino]phenyl}carbamoyl)-1,3-oxazole-4-carboxylate]	≥ 50000 nM	–
9200 nM	–	> 10000 nM	O=C(Nc1ccc(NC(=O)c2nc[nH]c2C(=O)NC2CC2)cc1)c1ccc(F)cc1 [Example 131, N^5-cyclopropyl-N^4-{4-[(4-fluorobenzoyl)amino]phenyl}-1H-imidazole-4,5-dicarboxamide]	–	–
4600 nM	4600 nM	–	CC(NC(=O)c1ncoc1C(=O)Nc1ccc(NC(=O)c2ccc(F)cc2Cl)cc1)c1ccccc1 (stereo not drawn) [Example 8, N^5-{4-[(2-chloro-4-fluorobenzoyl)amino]phenyl}-N^4-(1-phenylethyl)-1,3-oxazole-4,5-dicarboxamide]	≥ 50000 nM	–
3550 nM	3550 nM	–	CNC(=O)c1nc[nH]c1C(=O)Nc1ccc(NC(=O)c2c(-c3ccccc3)nn(C)c2Cl)cc1 [Example 17, N^5-(4-{[(5-chloro-1-methyl-3-phenyl-1H-pyrazol-4-yl)carbonyl]amino}phenyl)-N^4-methyl-1H-imidazole-4,5-dicarboxamide]	26000 nM	26000 nM
910 nM	–	60 nM	CC1CCN(CCNC(=O)c2[nH]cnc2C(=O)Nc2ccc(NC(=O)c3ccc(F)cc3)cc2)CC1 [Example 164, N^4-{4-[(4-fluorobenzoyl)amino]phenyl}-N^5-[2-(4-methylpiperidin-1-yl)ethyl]-1H-imidazole-4,5-dicarboxamide]	–	–
660 nM	–	80 nM	CC1CCN(CC(C)(C)NC(=O)c2[nH]cnc2C(=O)Nc2ccc(NC(=O)c3ccc(F)cc3Cl)cc2)CC1 [Example 155, N^4-{4-[(2-chloro-4-fluorobenzoyl)amino]phenyl}-N^5-[2-methyl-1-(4-methylpiperidin-1-yl)propan-2-yl]-1H-imidazole-4,5-dicarboxamide]	–	–
410 nM	340 nM	–	O=C(Nc1ccc(NC(=O)c2[nH]cnc2C(=O)NCc2ccccc2)cc1)c1ccc(F)cc1Cl [Example 18, N^4-benzyl-N^5-{4-[(2-chloro-4-fluorobenzoyl)amino]phenyl}-1H-imidazole-4,5-dicarboxamide]	≥ 50000 nM	–
280 nM	–	530 nM	CNC(=O)c1nc[nH]c1C(=O)Nc1ccc(NC(=O)c2ccc(O)cc2Cl)cc1 [Example 122, N^5-{4-[(2-chloro-4-hydroxybenzoyl)amino]phenyl}-N^4-methyl-1H-imidazole-4,5-dicarboxamide]	–	–
250 nM	–	70 nM	COCCNC(=O)c1[nH]cnc1C(=O)Nc1ccc(NC(=O)c2ccc(F)cc2Cl)cc1 [Example 130, N^4-{4-[(2-chloro-4-fluorobenzoyl)amino]phenyl}-N^5-(2-methoxyethyl)-1H-imidazole-4,5-dicarboxamide]	–	–
